Test results from US7169812B2, “Process for producing injectable gabapentin compositions” (Medtronic, Inc., priority 2003, dated 2007).
Entries after “also recorded” stand apart in the source; their conditions may differ.

What was measured:
[1] = water; basic and acidic aqueous solutions; cited from earlier work
Crl:CD(SD)IGS BR rats = assay: Intrathecal infusion toxicity study of heat-sterilized gabapentin solutions in rats (Day 1 to Day 29); type: in vivo; settings: rat
Protocol: Rats were infused intrathecally with solutions containing varying concentrations of gabapentin.
Injectable solutions containing 80 mg/ml gabapentin were prepared and sterilized by heating to F0=24 as described in Example 1. The heat-sterilized 80 mg/ml gabapentin solutions were diluted in sterile water for injection, USP (Abbott Laboratories; North Chicago, Ill.) to prepare solutions at gabapentin concentrations of 1.67, 4.17, and 37.5 mg/ml as shown in Table 2.
Osmotic minipumps(ALZET® Model 2ML4) were filled with approximately 2 ml of sterile water for Groups 1 and 6 or approximately 2 ml of the appropriate test article preparation for Groups 2 through 5. All dose preparations were filtered using a 0.22 μm filter prior to filling the osmotic minipumps.
The animals were obtained from Charles River Laboratories; Raleigh, N.C.. The animals were cannulated by the supplier in the intrathecal space overlying the lumbar vertebrae. The cannulae consisted of 1.3 cm PE-10 tubing attached to a 7 cm piece of polyurethane tubing (0.025 ID×0.040 OD) with a total dead volume of approximately 23.5 μl. On Day 1 (staggered based on sex), the animals were anesthetized and one prefilled osmotic pump/animal was aseptically inserted subcutaneously on the animal's dorsum. The cannula was filled with sterile water or test article preparation, as appropriate, and the pumps were connected to the intrathecal cannulae. Beginning on Day 1, animals were dosed 24 hours/day at a dose volume of approximately 60.96 μl/day via intrathecal infusion using the osmotic minipump through necropsy on Day 29. At initiation of dosing, the animals were 8 to 9 weeks old, and their body weights ranged from 264 g to 340 g for the males and 191 g to 264 g for the females.
Assessment of toxicity was based on mortality, clinical observations, ophthalmic examinations, body weights, food consumption, clinical pathology, and anatomic pathology. Ophthalmic examinations were performed prior to initiation of treatment and during week 4. An indirect ophthalmoscopy examination was done to include, but was not limited to, a cursory examination of the adnexa and anterior structures of the globe (e.g.,cornea, anterior chamber, lens) and a detailed examination of the ocular fundus. Body weights were taken prior to treatment, on Day 1, and weekly thereafter. Food consumption was measured weekly. At scheduled sacrifices, samples were taken for hematology, coagulation, and clinical chemistry. When possible, blood was collected from animals sacrificed at an unscheduled interval. Tissues were taken from each animal in groups 1 and 4 and each animal sacrificed at an unscheduled interval. Spinal cords were harvested from each animal in Groups 2, 3, and 5. The tissues and spinal cords were processed and examined microscopically. Macroscopic lesions were processed and examined microscopically from animals in Groups 2, 3, and 5. Sections of spinal cord from each animal in Groups 1 and 4 were embedded in paraffin, sectioned, and stained with luxol fast blue, and examined microscopically. Immunohistochemistry of spinal cord sections in paraffin from each animal in Groups 1 and 4 were sectioned, stained with anti-glial acidic fibrillary protein (Dako; Carpinteria, Calif.); rabbit IgG from Vector Laboratories; Burlingame, Calif. was used as a negative control), and examined. […]

[2] = Tonicity of gabapentin dissolved in water; type: physicochemical; settings: dissolved in water at 80 mg/ml
Text: In an embodiment, the invention provides an injectable composition comprising gabapentin, where the composition is substantially isotonic with a physiological fluid of a subject. For example, the injectable solution may be isotonic with a subject's blood or cerebrospinal fluid. Cerebrospinal fluid typically has a tonicity of about 305 mOsm. Accordingly, an embodiment of the invention provides an injectable gabapentin composition having a tonicity of about 290 mOsm to about 320 mOsm. If an injectable composition comprising gabapentin has a tonicity lower than about 290 mOsm to about 320 mOsm, the tonicity may be enhanced by adding a tonicity enhancing agent, such as sodium chloride. As used herein, “tonicity enhancing agent” means a compound or composition that increases tonicity of a composition. However, such tonicities of between about 290 mOsm to about 320 mOsm are not always achievable with gabapentin compositions. For example, gabapentin dissolved in water at a concentration of 80 mg/ml has a tonicity of about 500 mOsm. When the concentration of gabaentin in an injectable composition renders the composition hypertonic relative to a subject's physiological fluid, it is preferred that little or no amount of a tonicity enhancing agent be added to the composition. […]

mouse = settings: cited from earlier work

NCC1(CC(=O)O)CCCCC1 [gabapentin, 1-(aminomethyl)cyclohexane acetic acid]
Solubility [1]: freely soluble | Overall toxicity / tolerability (Crl:CD(SD)IGS BR rats; continuous intrathecal infusion, 0.10, 0.25, 2.25 and 4.8 mg/day, solutions heated to F0=24, acetic acid): no toxic effects attributable to the infused solutions were observed; also recorded: well tolerated and non-toxic | Glial fibrillary acidic protein immunostaining of spinal cord sections (Crl:CD(SD)IGS BR rats; control vs high-dose group (4.8 mg/day)): no significant variation | Organ weight differences, macroscopic observations, microscopic observations (Crl:CD(SD)IGS BR rats; intrathecal): no test article-related organ weight differences, macroscopic observations, or microscopic observations | Effects on clinical observations, body weights, body weight changes, food consumption, ophthalmic observations, clinical or anatomic pathology observations (Crl:CD(SD)IGS BR rats; intrathecal, 0.10-4.8 mg/day): No clear effects were observed | Effect on clinical pathology test results (Crl:CD(SD)IGS BR rats; intrathecal, terminally sterilized by heat): no obvious or adverse effect | Tonicity [2]: about 500 mOsm | toxicity (LD50, mouse) (mouse): more than 8000 mg/kg
